The values that follow come from PMC11241262, “Unravelling the Antifibrinolytic Mechanism of Action of the 1,2,3-Triazole Derivatives” (International Journal of Molecular Sciences, 2024).

Data set [1] concerns whole blood clots. Description: Whole blood clot lysis assay (D-dimer ELISA). On the set-up: species or system human. Conditions: 20 µM, 10 µg/mL tPA. Here is the method:
(§1) Blood was obtained by venipuncture from healthy donors after they signed an informed consent form. Blood was transferred into vacuum non-anticoagulant Vacutainer® tubes (BD, Franklin Lakes, NJ, USA). Blood samples were immediately used for the assay after extraction.
The quantification of D-dimer released during clot lysis was performed using the human D-dimer ELISA kit (Thermo Fisher Scientific). Directly after extraction, 500 µL of blood was transferred to four different glass tubes and allowed to clot for 10 min at 37 °C. Tubes were incubated at 37 °C for an additional 1 h to enable clot retraction from the walls of the glass tubes [53]. Then, 100 µL of a mixture of tPA and the studied compounds was added on top of each clot. […] As a control clot, 100 µL of tPA without compound in Tris HCl buffer was added. Tubes were incubated at 37 °C and, at time points of 5 min, 2, 4, 7, and 24 h, samples of each tube were extracted for D-dimer quantification. After gentle shaking of the tubes, 5 µL of the supernatant from each tube was pipetted into Eppendorf tubes and stored at −20 °C until assayed. The ELISA assay was performed as described by the manufacturer’s instructions and absorbance was read in a microplate reader at the wavelengths of 450 nm and 550 nm. […]

Data set [2] has as its target T1, tissue-type plasminogen activator (tPA) (Homo sapiens, UniProt P00750).
T1 construct: purchased abcam
Put plainly: tPA activity assay (chromogenic substrate). It is filed as biochemical. Conditions: for activity on tPA's active site: at the tested concentrations. Here is the method:
Tris hydrochloride, 1M, pH = 7.5 solution (Thermo Fisher Scientific, Waltham, MA, USA) was used as buffer. […] Recombinant human Tissue Plasminogen Activator (abcam, Cambridge, UK) served as the source of tPA, and was stored at −20 °C until used.
The assay measures the inhibition of tPA’s catalytic domain by the tested compounds employing a chromogenic substrate. Different concentrations of the studied molecules were incubated with tPA in a 96-well plate at 37 °C for 10 min. […] After, 20 μL of tPA’s substrate was added to each well. […] The slope for each assay was obtained from the initial and final absorbance values and their respective time points, or until complete substrate cleavage was achieved. (3) Absorbance slope=Abs2−Abs1/t2−t1
The Relative tPA Inhibition for each condition was calculated using Equation (2). Then, the Relative tPA Activity (%) was calculated by subtracting the relative tPA inhibition of each concentration from the total activity of the enzyme, obtained from a control without a compound.

In data set [3] the target is T2, plasminogen (Homo sapiens, UniProt P00747).
T2 construct: purchased abcam
T2 sequence (P00747 20-810 limits assumed): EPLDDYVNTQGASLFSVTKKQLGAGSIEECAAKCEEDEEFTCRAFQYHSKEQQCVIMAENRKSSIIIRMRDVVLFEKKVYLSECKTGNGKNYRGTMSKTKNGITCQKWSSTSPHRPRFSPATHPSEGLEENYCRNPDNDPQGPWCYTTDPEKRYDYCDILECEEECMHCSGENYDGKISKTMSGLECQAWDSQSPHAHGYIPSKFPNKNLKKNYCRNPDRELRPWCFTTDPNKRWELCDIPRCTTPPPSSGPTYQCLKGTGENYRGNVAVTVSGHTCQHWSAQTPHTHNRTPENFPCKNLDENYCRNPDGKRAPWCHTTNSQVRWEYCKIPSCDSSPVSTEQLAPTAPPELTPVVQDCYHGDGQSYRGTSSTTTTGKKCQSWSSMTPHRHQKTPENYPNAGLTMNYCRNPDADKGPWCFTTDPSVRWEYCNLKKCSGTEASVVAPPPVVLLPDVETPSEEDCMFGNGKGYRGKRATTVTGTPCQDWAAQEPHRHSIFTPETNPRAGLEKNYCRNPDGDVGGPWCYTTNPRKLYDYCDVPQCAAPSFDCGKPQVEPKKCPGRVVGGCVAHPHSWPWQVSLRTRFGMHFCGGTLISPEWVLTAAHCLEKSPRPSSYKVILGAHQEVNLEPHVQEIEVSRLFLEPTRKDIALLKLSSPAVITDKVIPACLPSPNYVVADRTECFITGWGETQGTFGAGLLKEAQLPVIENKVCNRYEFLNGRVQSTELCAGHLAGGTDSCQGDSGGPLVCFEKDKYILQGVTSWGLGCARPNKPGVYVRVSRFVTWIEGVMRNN
Description: Plasminogen activation assay (conversion of plasminogen into plasmin by tPA in the absence of fibrin). It is filed as biochemical. To be noted: for concentration at which compound increased tPA's activity by 50%: plasminogen-tPA isolated system, absence of fibrin. Here is the method:
The conversion rate of plasminogen to plasmin was assessed using the Tissue-Type Plasminogen Activator Activity Assay Kit (abcam), following the manufacturer’s instructions. The assay measures the ability of tPA to activate plasminogen to plasmin in the presence of the tested compounds using a chromogenic substrate.
A solution of plasminogen and plasmin substrate was mixed with a previously prepared solution of the studied compound and tPA in Tris HCl buffer in a 96-well plate. The final concentration of tPA in each well was 6.8 µg/mL, in a final volume of 100 µL. Absorbance was measured on a microplate reader at a wavelength of 405 nm every minute at 37 °C for 2 h or until the system reached saturation. The absorbance slope of each sample was determined using Equation (3). The Relative Plasminogen Activation (%) for each condition was calculated with Equation (4), using a control without a compound (enzyme control). (4) Relative Plasminogen Activation (%)=SlopeCompound−SlopeControl/SlopeControl×100
Values were fitted to a linear model using MATLAB R2023a (The Math Works Inc., Natick, MA, USA). Concentrations at which each compound was able to increase plasminogen’s conversion by 50% in comparison to the enzyme control were extracted and compared for the three molecules.

In data set [4] the test system is whole blood clot formation. Description: Whole blood coagulation assay (clot formation, no exogenous tPA). On the set-up: species or system human. Conditions: 40 µM, 37 °C, fibrinolysis not triggered. Here is the method:
as §1
Prior to blood addition, 20 µL of the evaluated compounds was added to glass tubes, in a final concentration of 40 µM. As a control clot, 20 µL of Tris HCl buffer with no compound was used. Next, 800 µL of blood was transferred to each tube followed by casual shaking to ensure proper mixing. Tubes were incubated at 37 °C for 30 min to allow clot formation and posterior lysis. Blood clotting and lysis were visually monitored and photographs were taken after 30 min.

Data set [5] addresses T3, plasmin (Homo sapiens, UniProt P00747).
T3 construct: purchased abcam
Description: Plasmin activity assay (Plasmin Inhibitor Screening Assay Kit). It is filed as biochemical. To be noted: for inhibition at 500 µM: 0.5 mM; for inhibition at 5000 µM: 5 mM; for inhibition at 10000 µM: 10 mM; for inhibition at 15000 µM: 15 mM; for inhibition at 20000 µM: 20 mM; for inhibition at 30000 µM: 30 mM; for increase of IC50 of plasmin's catalytic domain compared to IC50 in plasma clot lysis assay: plasma clot lysis IC50 from Bosch-Sanz et al. [43]. Here is the method: The potential activity of the studied compounds on the catalytic domain of plasmin was evaluated using the Plasmin Inhibitor Screening Assay Kit (abcam), following the manufacturer’s instructions. Briefly, the assay measures the inhibition of plasmin’s activity by the tested compounds through the cleavage of a fluorogenic peptide substrate. The assay was performed in flat-bottom 96-well plates. Plasmin was pre-incubated with different concentrations of the tested compounds for 10 min at RT prior to the addition of the peptide substrate. Plasmin’s activity was then measured by monitoring the increase in fluorescence intensity over time using a microplate reader (Infinite M Plex, Tecan, Männedorf, Switzerland) at an Ex/Em of 360/450 nm, every minute at 37 °C for 10 min. The slope of each sample was determined using the initial and final fluorescence values and their respective time points. (1) Fluorescence slope=RFU2−RFU1/t2−t1
The Relative Plasmin Inhibition was calculated according to the manufacturer’s instructions using a control slope with no compound (enzyme control):(2) Relative Plasmin Inhibition%=SlopeControl−SlopeCompound/SlopeControl×100

Data set [6] relates to whole blood clots. Put plainly: Whole blood dosage (effective antifibrinolytic dosage, tPA-triggered clot lysis). Conditions: 10 µg/mL tPA, 37 °C. On the set-up: species or system human. Here is the method: as §1
Glass tubes were prepared with 20 µL of a mixture of tPA, in a final concentration of 10 µg/mL, and the evaluated compounds, in a final concentration of 10, 20, 40, or 60 µM in Tris HCl buffer. A control clot was obtained with 20 µL of tPA with no compound. Then, 800 µL of blood was transferred to each tube and tubes were monitored for clot formation and lysis. The assay was performed with casual shaking. […] The ex vivo effective dosage for each compound was determined by their ability to inhibit complete clot degradation. Photographs were taken after 24 h of incubation.

For data set [7] the following is noted: ref [28],[29],[35]; cited from earlier work.
For data set [8] the following is noted: mostly cardiac surgery patients; ref [21],[29],[36],[37],[38]; cited from earlier work.
Setting [9] is: read-out: percentage of plasmin's inhibition.

T1 sequence (P00750 36-562): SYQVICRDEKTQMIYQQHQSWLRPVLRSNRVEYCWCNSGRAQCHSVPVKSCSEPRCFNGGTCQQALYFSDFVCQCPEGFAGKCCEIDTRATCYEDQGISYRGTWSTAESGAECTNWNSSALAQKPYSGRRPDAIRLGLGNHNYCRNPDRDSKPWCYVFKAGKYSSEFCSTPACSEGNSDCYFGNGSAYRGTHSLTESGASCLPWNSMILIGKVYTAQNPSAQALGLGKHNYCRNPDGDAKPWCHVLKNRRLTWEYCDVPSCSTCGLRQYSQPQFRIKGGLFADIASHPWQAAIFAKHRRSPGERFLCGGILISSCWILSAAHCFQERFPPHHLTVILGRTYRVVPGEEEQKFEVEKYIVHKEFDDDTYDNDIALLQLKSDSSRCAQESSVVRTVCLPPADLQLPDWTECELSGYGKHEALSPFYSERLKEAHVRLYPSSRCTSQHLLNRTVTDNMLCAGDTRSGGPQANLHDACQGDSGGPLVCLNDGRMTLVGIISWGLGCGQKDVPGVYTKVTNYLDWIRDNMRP
T3 sequence (P00747 97-580 limits assumed): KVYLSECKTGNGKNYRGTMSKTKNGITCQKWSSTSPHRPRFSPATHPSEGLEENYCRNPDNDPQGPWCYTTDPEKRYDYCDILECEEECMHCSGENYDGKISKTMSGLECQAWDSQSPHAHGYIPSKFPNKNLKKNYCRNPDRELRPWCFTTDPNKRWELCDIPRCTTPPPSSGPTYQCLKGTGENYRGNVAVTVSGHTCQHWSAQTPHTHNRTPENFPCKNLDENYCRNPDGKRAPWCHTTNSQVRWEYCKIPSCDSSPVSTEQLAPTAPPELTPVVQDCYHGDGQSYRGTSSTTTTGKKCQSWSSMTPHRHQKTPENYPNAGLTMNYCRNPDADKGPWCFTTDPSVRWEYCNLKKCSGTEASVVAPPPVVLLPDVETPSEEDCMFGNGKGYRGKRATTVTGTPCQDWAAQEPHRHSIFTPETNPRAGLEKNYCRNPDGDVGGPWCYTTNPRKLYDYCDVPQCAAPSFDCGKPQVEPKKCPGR
T3 sequence (P00747 581-810 limits assumed): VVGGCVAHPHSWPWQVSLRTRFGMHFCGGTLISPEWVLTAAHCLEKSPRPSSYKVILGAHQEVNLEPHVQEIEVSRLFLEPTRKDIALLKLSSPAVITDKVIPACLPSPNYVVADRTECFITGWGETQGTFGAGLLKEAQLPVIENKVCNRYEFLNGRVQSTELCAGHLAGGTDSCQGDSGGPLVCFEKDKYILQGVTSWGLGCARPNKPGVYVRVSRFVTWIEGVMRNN

For the compound `O=c1[nH]c(-c2cn(C3CCNCC3)nn2)no1` [compound 1], the “improvement in antifibrinolytic activity over TXA (D-dimer quantification)” value in data set [1] (whole blood) is listed as “more than 2 fold”. Also, the “D-dimer release lower than for compound 5” value in data set [1] (timepoint 24 h) is listed as “around 35%”. Also, in data set [2] (0.5 mM), the “percentage of tPA's activity” value was 96.53%. For the same compound, the “percentage of tPA's activity” value in data set [2] (1 mM) is 94.21%. Also, in data set [2] (5 mM), the “percentage of tPA's activity” value worked out at 96.95%. In addition, the “percentage of tPA's activity” value in data set [2] (10 mM) stood at 91.20%. Further, in data set [2] (15 mM), the “percentage of tPA's activity” value was found to be 101.89%. Moreover, the “activity on tPA's active site” value in data set [2] is “no activity”. For the same compound, the “potency relative to TXA in catalyzing plasminogen's activation by tPA” value in data set [3] (from concentration enhancing tPA's activity by 50%) is “more than 50 times”. Further, the “concentration at which compound increased tPA's activity by 50%” value in data set [3] is 4.67 µM. Moreover, the “effect on clot formation” value in data set [4] is reported as “do not have any effect”. Also, in data set [5] (setting [9]), the inhibition – broadly, the relative decrease from the control value, in per cent – at 500 µM stood at 0.56%; the inhibition at 5000 µM was 4.3%; the inhibition at 10000 µM was found to be 7.36%; the inhibition at 15000 µM worked out at 11.6%. In data set [5] (setting [9]), the inhibition at 20000 µM stood at 48% and the inhibition at 30000 µM was 76.6%. The midpoint of inhibition in data set [5] (inhibition of plasmin's cleavage of a synthetic substrate by 50%), the IC50, lay at 20.6 ± 0.78 mM. Moreover, the “increase of IC50 of plasmin's catalytic domain compared to IC50 in plasma clot lysis assay” value in data set [5] is 1000 fold. Moreover, the “effective dosage (concentration preventing complete clot degradation after 24 h)” value in data set [6] is 10 µM.
Take `NC[C@H]1CC[C@H](C(=O)O)CC1` [TXA, tranexamic acid, reference compound]: the “cerebrospinal fluid concentration as share of plasma concentration” value in data set [7] is listed as “approximately 10%”. Moreover, the “percentage of tPA's activity” value in data set [2] (0.5 mM) came to 92.08%. The “percentage of tPA's activity” value in data set [2] (1 mM) is 89.90%. Further, in data set [2] (5 mM), the “percentage of tPA's activity” value amounted to 87.18%. For the same compound, the “percentage of tPA's activity” value in data set [2] (10 mM) is given as 87.33%. In addition, the “percentage of tPA's activity” value in data set [2] (15 mM) was 84.84%. Also, the “activity on tPA's active site” value in data set [2] is “no activity”. For the same compound, the “concentration at which compound increased tPA's activity by 50%” value in data set [3] stood at 283.01 µM. In addition, the “effect on clot formation” value in data set [4] is “do not have any effect”. For the same compound, in data set [5] (setting [9]), the inhibition at 500 µM was 2.61%, the inhibition at 5000 µM came out at 12.3%, the inhibition at 10000 µM amounted to 22.4% and the inhibition at 15000 µM was found to be 28%. For the same compound, in data set [5] (setting [9]), the inhibition at 20000 µM worked out at 29.1% and the inhibition at 30000 µM was determined as 53.1%. The inhibition at 50000 µM in data set [5] (50 mM, read-out: percentage of plasmin's inhibition) turned out to be 59.2%. In addition, in data set [5], the “increase of IC50 of plasmin's catalytic domain compared to IC50 in plasma clot lysis assay” value is on record as 1000 fold. Further, the “increased incidence of postoperative seizures” value in data set [8] is given as 7 fold. Moreover, the “effective dosage (concentration preventing complete clot degradation after 24 h)” value in data set [6] worked out at 60 µM.
